These results are taken from US8501446B2 (Vertex Pharmaceuticals Incorporated, priority 2004, dated 2013).

What all share (type): biochemical
Test [1] concerns the target T1, JAK3 (Homo sapiens, UniProt P52333).
T1 sequence (P52333 1-1124): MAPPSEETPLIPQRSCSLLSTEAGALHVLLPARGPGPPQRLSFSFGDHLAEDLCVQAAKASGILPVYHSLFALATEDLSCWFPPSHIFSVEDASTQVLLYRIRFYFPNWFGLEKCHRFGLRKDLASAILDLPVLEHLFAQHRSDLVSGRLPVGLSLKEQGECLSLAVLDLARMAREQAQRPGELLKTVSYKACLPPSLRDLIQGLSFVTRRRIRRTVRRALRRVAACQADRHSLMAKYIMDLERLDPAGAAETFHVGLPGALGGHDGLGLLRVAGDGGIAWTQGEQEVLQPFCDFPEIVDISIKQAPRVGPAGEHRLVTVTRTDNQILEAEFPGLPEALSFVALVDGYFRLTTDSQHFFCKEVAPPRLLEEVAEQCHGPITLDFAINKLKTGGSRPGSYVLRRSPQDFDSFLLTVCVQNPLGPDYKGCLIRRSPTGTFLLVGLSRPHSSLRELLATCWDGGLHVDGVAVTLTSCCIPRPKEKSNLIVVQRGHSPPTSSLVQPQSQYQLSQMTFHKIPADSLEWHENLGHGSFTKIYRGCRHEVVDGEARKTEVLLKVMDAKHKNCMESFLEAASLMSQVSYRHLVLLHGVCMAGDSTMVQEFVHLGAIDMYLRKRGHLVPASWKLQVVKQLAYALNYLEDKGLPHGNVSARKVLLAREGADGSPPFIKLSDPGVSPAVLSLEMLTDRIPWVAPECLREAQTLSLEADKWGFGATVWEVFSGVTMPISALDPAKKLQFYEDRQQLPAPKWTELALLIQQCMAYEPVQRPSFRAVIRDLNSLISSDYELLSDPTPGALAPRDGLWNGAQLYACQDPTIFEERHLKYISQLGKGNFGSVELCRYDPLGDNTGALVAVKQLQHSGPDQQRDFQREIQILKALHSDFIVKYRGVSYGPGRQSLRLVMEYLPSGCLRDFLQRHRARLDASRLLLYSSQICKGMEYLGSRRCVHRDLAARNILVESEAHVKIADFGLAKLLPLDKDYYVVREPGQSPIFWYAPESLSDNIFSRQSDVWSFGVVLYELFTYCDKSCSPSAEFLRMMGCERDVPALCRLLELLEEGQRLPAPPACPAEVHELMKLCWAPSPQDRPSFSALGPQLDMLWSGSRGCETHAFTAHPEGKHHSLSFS
The test can be described thus: JAK3 inhibition assay (standard radioactive enzyme assay). To be noted: average Ki if more than one value determined. The protocol:
(§1) Compounds were screened for their ability to inhibit JAK3 using a standard radioactive enzyme assay. 1.5 μL/well of a DMSO stock containing serial dilutions of a compound of the present invention (concentrations ranging from 667 μM to 46 nM) was placed in a 96 well polycarbonate plate. 50 μL per well of kinase buffer (100 mM HEPES (pH 7.4), 10 mM MgCl2, 25 mM NaCl, 1 mM DTT, and 0.01% bovine serum albumin (BSA)) containing 2 μM poly(Glu)4Tyr and 10 μM ATP was also added to the plate. To initiate the reaction, 50 μL kinase buffer containing 2 nM JAK3 enzyme was added. Final ATP concentration was 5 μM [γ-^33P] ATP (200 μCi ^33P ATP/μmol ATP (Perkin Elmer, Cambridge, Mass.). After 20 minutes at room temperature (25° C.), the reaction was stopped by adding 50 μL 20% trichloroacetic acid (TCA)/0.4 mM ATP to each well. The entire content of each well was then transferred to a 96 well glass fiber filter plate using a TomTek Cell Harvester. After washing, 60 μL scintillation fluid was added and ^33P incorporation detected using a Perkin Elmer TopCount. After removing mean background values for all of the data points the data was fit using Prism software to obtain a Ki(app). Inhibition of JAK2 was measured as above except that final poly(Glu)4Tyr concentration was 15 μM and final ATP concentration was 12 μM.

Test [2] addresses JAK2 (Homo sapiens, UniProt O60674). The test can be described thus: JAK2 inhibition assay (radioactive enzyme assay, as for JAK3). Conditions: average Ki if more than one value determined. As for the experimental part: as §1
Test [3] has as its target T2, ROCK I (AA 6-553) (Homo sapiens, UniProt Q13464).
T2 construct: ROCK I (AA 6-553)
The test can be described thus: ROCK inhibition assay, standard coupled enzyme system ("Enzyme"). To be noted: enzyme-linked assay. In outline:
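ROCK I (AA 6-553) at 45 nM and 30 °C with 45 μM ATP and 200 μM peptide, in 100 mM HEPES pH 7.5, 10 mM MgCl2, 25 mM NaCl, 2 mM DTT, 1.5% DMSO. ADP output read by a PK/LDH coupled system: 2.5 mM PEP, 350 μM NADH, 30 μg/ml PK, 10 μg/ml LDH.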

For test [4], the target named is T3, full length Aurora-A (AA 1-403) (Homo sapiens, UniProt O14965).
T3 construct: full length Aurora-A (AA 1-403)
T3 sequence (O14965 1-403): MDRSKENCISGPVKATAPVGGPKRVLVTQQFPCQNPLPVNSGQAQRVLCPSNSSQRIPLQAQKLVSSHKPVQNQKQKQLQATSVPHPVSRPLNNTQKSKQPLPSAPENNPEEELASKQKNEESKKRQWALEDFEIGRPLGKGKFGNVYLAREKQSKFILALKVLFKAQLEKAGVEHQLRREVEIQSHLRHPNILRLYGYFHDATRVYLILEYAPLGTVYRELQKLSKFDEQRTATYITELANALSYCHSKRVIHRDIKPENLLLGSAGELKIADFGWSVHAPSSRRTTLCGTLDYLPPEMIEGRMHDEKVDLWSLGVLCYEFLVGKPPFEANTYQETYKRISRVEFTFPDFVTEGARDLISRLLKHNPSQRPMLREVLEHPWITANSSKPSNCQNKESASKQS
The test is described as follows: Aurora-A inhibition assay, standard coupled enzyme system. To be noted: average Ki if more than one value determined.

T2 sequence (Q13464 6-553, species assumed): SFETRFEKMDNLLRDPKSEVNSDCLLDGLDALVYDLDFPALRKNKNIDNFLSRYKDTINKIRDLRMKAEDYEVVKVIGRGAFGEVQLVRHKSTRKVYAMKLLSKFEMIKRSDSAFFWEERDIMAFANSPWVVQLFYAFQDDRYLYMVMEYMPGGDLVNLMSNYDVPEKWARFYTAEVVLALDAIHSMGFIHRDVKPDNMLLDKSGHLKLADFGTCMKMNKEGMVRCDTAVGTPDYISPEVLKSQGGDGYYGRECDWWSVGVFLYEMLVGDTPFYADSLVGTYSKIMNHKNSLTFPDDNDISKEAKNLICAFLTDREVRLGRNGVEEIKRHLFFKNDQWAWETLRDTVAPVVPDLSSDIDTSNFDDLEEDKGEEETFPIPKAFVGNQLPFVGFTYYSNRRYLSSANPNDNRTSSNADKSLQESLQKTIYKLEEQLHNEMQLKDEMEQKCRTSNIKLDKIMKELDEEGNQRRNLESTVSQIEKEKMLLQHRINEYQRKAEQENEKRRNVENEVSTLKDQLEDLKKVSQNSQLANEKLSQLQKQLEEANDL
Sequence of JAK2 (O60674 whole entry, species assumed, the tested form may be a part): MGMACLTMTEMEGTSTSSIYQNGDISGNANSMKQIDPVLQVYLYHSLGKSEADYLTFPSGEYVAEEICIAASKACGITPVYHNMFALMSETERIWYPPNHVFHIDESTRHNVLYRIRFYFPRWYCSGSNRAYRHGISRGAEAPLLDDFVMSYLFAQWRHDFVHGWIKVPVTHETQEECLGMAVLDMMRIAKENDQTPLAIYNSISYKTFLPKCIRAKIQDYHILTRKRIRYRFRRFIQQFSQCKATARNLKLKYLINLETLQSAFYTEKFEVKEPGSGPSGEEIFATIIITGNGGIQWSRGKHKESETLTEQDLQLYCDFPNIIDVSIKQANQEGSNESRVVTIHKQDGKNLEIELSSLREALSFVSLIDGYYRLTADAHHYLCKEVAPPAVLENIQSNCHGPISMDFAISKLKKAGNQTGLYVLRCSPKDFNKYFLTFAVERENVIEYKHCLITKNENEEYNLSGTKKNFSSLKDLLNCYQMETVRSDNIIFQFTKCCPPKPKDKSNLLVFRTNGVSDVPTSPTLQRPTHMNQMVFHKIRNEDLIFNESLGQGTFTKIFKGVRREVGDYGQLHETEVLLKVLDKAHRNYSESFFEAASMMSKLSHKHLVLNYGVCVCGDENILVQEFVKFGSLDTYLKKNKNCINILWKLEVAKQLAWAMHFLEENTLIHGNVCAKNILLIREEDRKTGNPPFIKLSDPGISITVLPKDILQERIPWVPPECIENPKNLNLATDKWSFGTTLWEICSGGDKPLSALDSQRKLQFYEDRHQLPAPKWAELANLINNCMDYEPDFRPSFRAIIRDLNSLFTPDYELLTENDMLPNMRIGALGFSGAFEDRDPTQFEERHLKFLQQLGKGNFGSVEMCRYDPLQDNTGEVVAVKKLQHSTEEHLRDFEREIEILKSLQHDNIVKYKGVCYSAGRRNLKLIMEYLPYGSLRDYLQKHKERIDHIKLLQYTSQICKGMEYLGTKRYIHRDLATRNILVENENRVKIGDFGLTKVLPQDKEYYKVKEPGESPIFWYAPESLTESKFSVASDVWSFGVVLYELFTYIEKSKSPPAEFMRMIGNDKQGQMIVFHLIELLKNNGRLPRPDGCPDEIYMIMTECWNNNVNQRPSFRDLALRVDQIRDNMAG

A word on the Ki: it is the equilibrium dissociation constant of an inhibitor or competing ligand from its target. With `CC(=O)N1[C@H](C)CN(c2cccc(-c3c[nH]c4ncc(OC5CCOC5)cc34)n2)C[C@@H]1C` (stereo partly drawn) [Compound 96], the Ki was < 0.5 µM in test [1], < 0.5 µM in test [2], 0.5 to 5 µM in test [3] and 0.5 to 5 µM in test [4].
Take `C/C=C/C(=O)Nc1cnc2[nH]cc(-c3cccc(N4C[C@@H](C)N(C(C)=O)[C@@H](C)C4)n3)c2c1` [Compound 181]: the Ki in test [1] was < 0.5 µM; in test [2] it was < 0.5 µM; in test [3], 0.5 to 5 µM; in test [4], 0.5 to 5 µM.
With `CNc1cnc2[nH]cc(-c3cccc(N4C[C@@H](C)N(C(C)=O)[C@@H](C)C4)n3)c2c1` [Compound 159], the Ki is < 0.5 µM in test [1], < 0.5 µM in test [2], 0.5 to 5 µM in test [3] and 0.5 to 5 µM in test [4].
As to `CC(=O)N1[C@H](C)CN(c2cccc(-c3c[nH]c4ncc(C(=O)N5CCNCC5)cc34)n2)C[C@@H]1C` [Compound 56], the inhibition constant Ki in test [1] is 0.5 to 5 µM; in test [2], > 5 µM; in test [4], 0.5 to 5 µM.
As to `CC(=O)N1[C@H](C)CN(c2cccc(-c3c[nH]c4ncc(NC(=O)c5cccs5)cc34)n2)C[C@@H]1C` [Compound 182], the Ki was < 0.5 µM in test [1], < 0.5 µM in test [2], 0.5 to 5 µM in test [3] and 0.5 to 5 µM in test [4].
For `COC(=O)Nc1cnc2[nH]cc(-c3cccc(N4C[C@@H](C)N(C(C)=O)[C@@H](C)C4)n3)c2c1` [Compound 66], the inhibitory constant (Ki) was < 0.5 µM in test [1], < 0.5 µM in test [2], 0.5 to 5 µM in test [3] and 0.5 to 5 µM in test [4].
With `CC(=O)N1[C@H](C)CN(c2cccc(-c3c[nH]c4ncc(C(=O)N5CCCCC5)cc34)n2)C[C@@H]1C` [Compound 54], the inhibition constant (Ki) in test [1] is 0.5 to 5 µM; in test [2] it was 0.5 to 5 µM; in test [3], 0.5 to 5 µM; in test [4], < 0.5 µM.
With `CC(=O)N1[C@H](C)CN(c2nc(-c3c[nH]c4ncc(Cl)cc34)c(F)cc2C#N)C[C@@H]1C` [Compound 68], the Ki is < 0.5 µM in test [1], < 0.5 µM in test [2], 0.5 to 5 µM in test [3] and < 0.5 µM in test [4].
`CC(=O)N1[C@H](C)CN(c2cccc(-c3c[nH]c4ncc(NC(=O)c5cnccn5)cc34)n2)C[C@@H]1C` [Compound 164]: the inhibitory constant (Ki) was < 0.5 µM in test [1], < 0.5 µM in test [2], 0.5 to 5 µM in test [3] and 0.5 to 5 µM in test [4].
For `CC(=O)N1[C@H](C)CN(c2cccc(-c3c[nH]c4ncc(NC(=O)c5ccno5)cc34)n2)C[C@@H]1C` [Compound 167], the Ki in test [1] was < 0.5 µM; in test [2], < 0.5 µM; in test [3] it was 0.5 to 5 µM; in test [4], 0.5 to 5 µM.
Regarding `CC(C)COC(=O)Nc1cccc(-c2c[nH]c3ncc(Cl)cc23)n1` [Compound 90], the Ki in test [1] was < 0.5 µM; in test [2], < 0.5 µM; in test [3] it was 0.5 to 5 µM.
In the case of `O[C@@H]1Cc2ccccc2[C@@H]1Nc1cccc(-c2c[nH]c3ncc(Cl)cc23)n1` [Compound 137], the results for the Ki in test [1], in test [2] and in test [3] were < 0.5 µM, < 0.5 µM and 0.5 to 5 µM, respectively.
Take `CC(=O)N1[C@H](C)CN(c2cccc(-c3c[nH]c4ncc(NC(=O)CN5CCOCC5)cc34)n2)C[C@@H]1C` [Compound 116]: the inhibitory constant (Ki) in test [1] is < 0.5 µM; in test [2], < 0.5 µM; in test [3] it was 0.5 to 5 µM.
With `O=C(O)c1ccc(-c2c[nH]c3ncc(Cl)cc23)nc1` [Compound 106], the values for the Ki in test [1], in test [2] and in test [3] were < 0.5 µM, < 0.5 µM and 0.5 to 5 µM, respectively.
Consider `CC(=O)N1[C@H](C)CN(c2cccc(-c3c[nH]c4ncc(NC(=O)c5ccc(F)cc5)cc34)n2)C[C@@H]1C` [Compound 189], for which the Ki in test [1] was < 0.5 µM; in test [2], < 0.5 µM; in test [3] it was 0.5 to 5 µM.
In the case of `CC(=O)N1[C@H](C)CN(c2cccc(-c3c[nH]c4ncc(NC(=O)OCC(C)C)cc34)n2)C[C@@H]1C` [Compound 63], the Ki in test [1], in test [2] and in test [3] was < 0.5 µM in each case.
In the case of `Clc1cnc2[nH]cc(-c3cccc(NCc4ccccc4)c3)c2c1` [Compound 145], the inhibition constant Ki was < 0.5 µM in test [1], < 0.5 µM in test [2] and 0.5 to 5 µM in test [3].
On to `Clc1cnc2[nH]cc(-c3ccc4ccccc4c3)c2c1` [Compound 199], for which the Ki in test [1] was < 0.5 µM; in test [2] it was 0.5 to 5 µM; in test [3], 0.5 to 5 µM.
Consider `O[C@H]1Cc2ccccc2[C@H]1Nc1cccc(-c2c[nH]c3ncc(Cl)cc23)n1` [Compound 136], for which the Ki in test [1], in test [2] and in test [3] was < 0.5 µM each time.
Consider `Cc1cc(-c2c[nH]c3ncc(Cl)cc23)nc2ccccc12` [Compound 197], for which the Ki in test [1] was < 0.5 µM; in test [2], 0.5 to 5 µM; in test [3], 0.5 to 5 µM.
For `CCC(=O)N1CCN(c2cccc(-c3c[nH]c4ncc(Cl)cc34)n2)CC1` [Compound 85], the inhibition constant Ki in test [1] is < 0.5 µM; in test [2], < 0.5 µM; in test [3] it was 0.5 to 5 µM.
Consider `Clc1cnc2[nH]cc(-c3cccc(CNc4ccccc4)c3)c2c1` [Compound 186], for which the Ki in test [1], in test [2] and in test [4] was < 0.5 µM in each case.
As for `CC(=O)N1[C@H](C)CN(c2cccc(-c3c[nH]c4ncc(NC(=O)N5CCOCC5)cc34)n2)C[C@@H]1C` [Compound 127], the inhibition constant (Ki) was < 0.5 µM in test [1], < 0.5 µM in test [2] and 0.5 to 5 µM in test [3].
Turning to `O=C(Nc1cccc(-c2c[nH]c3ncc(Cl)cc23)n1)OCc1ccccc1` [Compound 91], the Ki in test [1], in test [2] and in test [3] was 0.5 to 5 µM in each case.
On to `Cc1cc(C(F)(F)F)cc(-c2c[nH]c3ncc(Cl)cc23)n1` [Compound 196], for which the inhibitory constant (Ki) in test [1] is 0.5 to 5 µM; in test [2] it was > 5 µM; in test [3] it was 0.5 to 5 µM.
Take `Clc1cnc2[nH]cc(-c3ccccc3)c2c1` [Compound 183]: the Ki in test [1] was < 0.5 µM; in test [2], < 0.5 µM; in test [3] it was 0.5 to 5 µM.
Regarding `CC(=O)N1[C@H](C)CN(c2cccc(-c3c[nH]c4ncc(NC(=O)[C@H]5CCCCN5)cc34)n2)C[C@@H]1C` [Compound 171], the inhibition constant (Ki) in test [1] was < 0.5 µM; in test [2], < 0.5 µM; in test [3], 0.5 to 5 µM.
